Source: US20260008775A1, “AZOLE MODULATORS OF CHOLESTEROL BIOSYNTHESIS AND THEIR USE FOR PROMOTING REMYELINATION” (GENENTECH, INC., priority 2022, published 2026)

Columns and labels:
[1] = biological target: human emopamil binding protein and human 7-dehydrocholesterol reductase (hEBP-DHCR7) (Homo sapiens (Human), UniProt Q15125); experiment: hEBP-DHCR7 radioligand binding assay (filter binding, membranes of co-expressing HEK293 cells); settings: for Ki: competition with [3H] radioligand, 8 doses 0.06 to 5000 nM, Ki calculated from IC50
Summary of the method: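 Compound, either single dose 1 μM or eight 5-fold dilutions from 0.06 to 5000 nM, competed with a [3H]-labelled ligand added at 25 nM for binding to co-expressing HEK293 membranes. IC50 came from nonlinear regression, with full block and DMSO as controls, then Cheng–Prusoff conversion to Ki.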

[2] = system: zymostenol accumulation (EBP) in EpiSC-derived OPCs; experiment: GC/MS-based sterol profiling, zymostenol accumulation in EpiSC-derived OPCs; assay type: cell-based, mouse; settings: for EC50: Mus musculus, 24 h, EpiSC-derived OPCs, 24 hr, 8 doses from 0.15 nM to 333 nM, read-out: Mouse Zymostenol GCMS EC50
Summary of the method: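 Zymostenol level is expressed relative to that after 24 h with 100 nM positive-control reference, measured by full-scan GC/MS (m/z 458) with cholesterol-d7 internal standard after BSTFA derivatisation. Cells were EpiSC-derived OPCs, 100,000/well in N2B27 without growth factors, treated 24 h, from two or more independent platings.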

[3] = system: EpiSC-derived OPCs; experiment: In vitro phenotypic screening of OPCs, MBP high-content imaging (percentage of oligodendrocytes); assay type: cell-based, mouse; settings: for EC50: Mus musculus, 72 h, 3 days, MBP stain, dose-response 0.5 nM to 1000 nM, read-out: OPC EC50
Description: To assess effects of treatments on OPCs, all treatments were assayed in two or more independent platings of epiblast stem cell-derived OPCs (EpiSC). EpiSC-derived OPCs were obtained using in vitro differentiation protocols and culture conditions described previously (Najm et al, 2011, Nature Methods). OPCs were expanded and frozen down in aliquots. OPCs were thawed into growth conditions for at least one passage before use in further assays.
EpiSC-derived OPCs were grown and expanded in poly-L-ornithine (PO) and laminin-coated flasks in N2B27 media (DMEM/F12 (Gibco), N2-MAX (R&D Systems), B-27 (ThermoFisher), and GlutaMax (Gibco)) supplemented with FGF2 (10 μg/mL, R&D systems, 233-FB-025) and PDGF-AA (10 μg/mL, R&D systems, 233-AA-050) before harvesting for experiments. The cells were seeded onto poly-L-ornithine or poly-D-lysine coated CellCarrier Ultra plates (PerkinElmer) coated with laminin (Sigma, L2020) at a density of 150,000/cm^2 in N2B27 media without growth factors. For dose-response testing, a 1000× compound stock in dimethyl sulphoxide (DMSO) was added to assay plates, resulting in 8-point dose curves with final concentrations between 1000 nM and 0.5 nM. Positive controls and DMSO vehicle controls were included in each assay plate. Cells were incubated under standard conditions (37° C., 5% CO2) for 3 days and fixed with 4% paraformaldehyde (PFA) in phosphate buffered saline (PBS) for 20 min. Fixed plates were washed with PBS, permeabilized with 0.1% Triton X-100, and blocked with 10% donkey serum (v/v) in PBS for 40 min. Then, cells were labelled with MBP antibodies (Abcam, ab7349; 1:200) for 2 h at room temperature, washed with PBS, and stained with Alexa Fluor conjugated secondary antibodies (1:500) for 45 min. Nuclei were visualized by DAPI staining (Sigma; […]), followed by further PBS washes.
Cells and cell culture plates were imaged on the Operetta High Content Imaging and Analysis system (PerkinElmer). Analysis (PerkinElmer Harmony and Columbus software) began by identifying intact nuclei stained by DAPI. The peri-nuclear region of each cell was then cross-referenced with the mature myelin protein (MBP) stain to identify oligodendrocyte nuclei, and from this the percentage of oligodendrocytes was calculated. EC50 values were calculated using The Levenberg-Marquardt algorithm to fit a Hill equation to dose-response data (0.5 nM to 1000 nM).

Chain of human emopamil binding protein and human 7-dehydrocholesterol reductase (hEBP-DHCR7) (Q15125 whole entry): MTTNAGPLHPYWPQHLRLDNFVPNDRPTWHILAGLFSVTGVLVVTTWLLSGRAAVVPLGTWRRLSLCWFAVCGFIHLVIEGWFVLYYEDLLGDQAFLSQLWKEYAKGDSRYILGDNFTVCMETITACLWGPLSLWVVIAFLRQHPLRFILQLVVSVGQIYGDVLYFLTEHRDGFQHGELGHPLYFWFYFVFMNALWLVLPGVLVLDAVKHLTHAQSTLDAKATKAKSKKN

Row | Ki [1] | EC50 [2] | EC50 [3] | fold decrease in EBP inhibition ([1]; as compared to compound 202 (no amine group on Ring B)) | SMILES | fold decrease in activity in the mouse zymostenol assay ([2]; as compared to compound 202) | fold decrease in activity in the OPC assay ([3]; as compared to compound 202)
1 | 12.5 nM | 13.8 nM | 75 nM | – | CCn1nc(-c2cncc(C(F)(F)F)c2)cc1[C@H]1[C@@H]2C[C@@H](N3CCCOCC3)C[C@@H]21 [Compound 53, 4-((1R,3s,5S,6r)-6-(1-Ethyl-3-(5-(trifluoromethyl)pyridin-3-yl)-1H-pyrazol-5-yl)bicyclo[3.1.0]hexan-3-yl)-1,4-oxazepane] | – | –
2 | 15.1 nM | 3.87 nM | 11.4 nM | – | CC(C)n1nc(-c2cnc(C(F)(F)F)nc2)cc1[C@H]1[C@@H]2C[C@H](N3CCOC[C@H]3C)C[C@@H]21 [Compound 97, (R)-4-((1R,3r,5S,6R)-6-(1-Isopropyl-3-(2-(trifluoromethyl)pyrimidin-5-yl)-1H-pyrazol-5-yl)bicyclo[3.1.0]hexan-3-yl)-3-methylmorpholine] | – | –
3 | 3670 nM | 1400 nM | 3000 nM | 19.5 fold | CC(C)n1nc(-c2cnc(N)c(C(F)(F)F)c2)cc1[C@H]1[C@@H]2C[C@@H](N3CCOCC3)C[C@@H]21 [Compound A, reference compound] | 5.9 fold | 4.1 fold
4 | 23.6 nM | 9 nM | 43.9 nM | – | CC(C)n1nc(-c2cncc(C(F)(F)F)c2)cc1[C@H]1[C@@H]2C[C@H](N3CCO[C@H](C)C3)C[C@@H]21 (single isomer, unassigned) [42*] | – | –
5 | 50 nM | 66.5 nM | 233 nM | – | CC(C)n1nc(-c2cccc(C(F)(F)F)c2)nc1[C@H]1[C@@H]2C[C@H](N3CCOC[C@@H]3C)C[C@@H]21 [Compound 67, (S)-4-((1R,3s,5S,6S)-6-(1-Isopropyl-3-(3-(trifluoromethyl)phenyl)-1H-1,2,4-triazol-5-yl)bicyclo[3.1.0]hexan-3-yl)-3-methylmorpholine] | – | –
6 | 12.7 nM | 2.42 nM | 7.49 nM | – | CC(C)n1nc(-c2cccc(F)c2)cc1[C@H]1[C@@H]2C[C@H](N3CCCOCC3)C[C@@H]21 [Compound 195*, 4-((1R,3r,5S,6r)-6-(3-(3-Fluorophenyl)-1-isopropyl-1H-pyrazol-5-yl)bicyclo[3.1.0]hexan-3-yl)-1,4-oxazepane] | – | –
7 | 21.3 nM | 27.1 nM | 55.9 nM | – | CC(C)n1nc(-c2ccc(F)cc2)cc1[C@H]1[C@@H]2C[C@@H](N3CCCOCC3)C[C@@H]21 [Compound 184*, 4-((1R,3s,5S,6r)-6-(3-(4-fluorophenyl)-1-isopropyl-1H-pyrazol-5-yl)bicyclo[3.1.0]hexan-3-yl)-1,4-oxazepane] | – | –
8 | 11.7 nM | 4.86 nM | 30.8 nM | – | CC(C)n1nc(-c2ccnc(C(F)(F)F)n2)cc1[C@H]1[C@@H]2C[C@@H](N3CCOCC3)C[C@@H]21 [Compound 98, 4-((1R,3s,5S,6r)-6-(1-Isopropyl-3-(2-(trifluoromethyl)pyrimidin-4-yl)-1H-pyrazol-5-yl)bicyclo[3.1.0]hexan-3-yl)morpholine] | – | –
9 | 53 nM | 11 nM | 48 nM | – | CC(C)n1nc(-c2cncc(C(F)(F)F)c2)cc1[C@H]1[C@@H]2C[C@H](N3CCOC[C@@H]3C)C[C@@H]21 (single isomer, unassigned) [45*] | – | –
10 | 32.7 nM | 1.03 nM | 32.7 nM | – | CC(C)n1nc(-c2ccc(C(F)(F)F)c(F)c2)nc1[C@H]1CC[C@@H](N2CCO[C@H](CF)C2)C1 [Compound 160, (S)-4-((1R,3S)-3-(3-(3-Fluoro-4-(trifluoromethyl)phenyl)-1-isopropyl-1H-1,2,4-triazol-5-yl)cyclopentyl)-2-(fluoromethyl)morpholine] | – | –
11 | 50.2 nM | 2.84 nM | 14.9 nM | – | CC(C)n1nc(-c2cccc(C(F)(F)F)c2)nc1[C@H]1[C@@H]2C[C@@H](N3CCOC[C@@H]3C)C[C@@H]21 [Compound 66, (S)-4-((1R,3r,5S,6S)-6-(1-Isopropyl-3-(3-(trifluoromethyl)phenyl)-1H-1,2,4-triazol-5-yl)bicyclo[3.1.0]hexan-3-yl)-3-methylmorpholin] | – | –
12 | 36.1 nM | 9.34 nM | 93.4 nM | – | CC(C)n1nc(-c2ccnc(C(F)(F)F)n2)cc1[C@H]1[C@@H]2C[C@H](N3CCOC[C@H]3C)C[C@@H]21 [Compound 103, (R)-4-((1R,3r,5S,6S)-6-(1-Isopropyl-3-(2-(trifluoromethyl)pyrimidin-4-yl)-1H-pyrazol-5-yl)bicyclo[3.1.0]hexan-3-yl)-3-methylmorpholine] | – | –
13 | – | 203 nM | 333 nM | – | CC(C)n1nc(-c2ccc(C(F)(F)F)nc2)nc1[C@H]1[C@@H]2C[C@@H](N3CCCOCC3)C[C@@H]21 [Compound 16, 4-((1R,3s,5S,6r)-6-(1-isopropyl-3-(6-(trifluoromethyl)pyridin-3-yl)-1H-1,2,4-triazol-5-yl)bicyclo[3.1.0]hexan-3-yl)-1,4-oxazepane] | – | –
14 | – | 40.2 nM | 81.3 nM | – | CC(C)n1nc(-c2cccc(C(F)(F)F)c2)nc1[C@H]1[C@@H]2C[C@@H](N3CCCOCC3)C[C@@H]21 [Compound 14, 4-((1R,3s,5S,6r)-6-(1-isopropyl-3-(3-(trifluoromethyl)phenyl)-1H-1,2,4-triazol-5-yl)bicyclo[3.1.0]hexan-3-yl)-1,4-oxazepane] | – | –
15 | – | 236 nM | 723 nM | – | CC(C)n1nc(-c2cncc(C(F)(F)F)c2)cc1[C@H]1[C@@H]2C[C@@H](N3CCOCC3)C[C@@H]21 [Cmpd 202] | – | –
16 | – | 1.74 nM | 4.16 nM | – | CC(C)n1nc(-c2cccc(OC(F)(F)F)c2)nc1[C@H]1[C@@H]2C[C@H](N3CCCOCC3)C[C@@H]21 [Compound 17, 4-((1R,3r,5S,6r)-6-(1-isopropyl-3-(3-(trifluoromethoxy)phenyl)-1H-1,2,4-triazol-5-yl)bicyclo[3.1.0]hexan-3-yl)-1,4-oxazepane] | – | –
17 | – | 64 nM | 232 nM | – | CC(C)n1nc(-c2cccc(C(F)(F)F)c2)nc1[C@H]1[C@@H]2C[C@@H](N3CCOCC3)C[C@@H]21 [20*, 4-((1R,3s,5S,6r)-6-(1-isopropyl-3-(3-(trifluoromethyl)phenyl)-1H-1,2,4-triazol-5-yl)bicyclo[3.1.0]hexan-3-yl)morpholine] | – | –
18 | – | 234 nM | 65.5 nM | – | CC(C)n1nc(-c2cccc(C(F)(F)F)n2)nc1[C@@H]1CCC(N2CCOCC2)C1 (stereo in doubt) [25*, 4-((1R,3R)-3-(1-isopropyl-3-(6-(trifluoromethyl)pyridin-2-yl)-1H-1,2,4-triazol-5-yl)cyclopentyl)morpholine] | – | –
19 | – | 52.8 nM | 78.5 nM | – | CC(C)n1nc(-c2cccc(OC(F)(F)F)c2)nc1[C@H]1[C@@H]2C[C@@H](N3CCCOCC3)C[C@@H]21 [Compound 18, 4-((1R,3s,5S,6r)-6-(1-isopropyl-3-(3-(trifluoromethoxy)phenyl)-1H-1,2,4-triazol-5-yl)bicyclo[3.1.0]hexan-3-yl)-1,4-oxazepane] | – | –
20 | – | 5.98 nM | 22.4 nM | – | CC(C)n1nc(-c2ccc(C(F)(F)F)nc2)nc1[C@H]1[C@@H]2C[C@H](N3CCCOCC3)C[C@@H]21 [Compound 15, 4-((1R,3r,5S,6r)-6-(1-isopropyl-3-(6-(trifluoromethyl)pyridin-3-yl)-1H-1,2,4-triazol-5-yl)bicyclo[3.1.0]hexan-3-yl)-1,4-oxazepane] | – | –
21 | – | 7.51 nM | 35 nM | – | CC(C)n1nc(-c2ccc(C(F)(F)F)cn2)cc1[C@H]1[C@@H]2C[C@H](N3CCOCC3)C[C@@H]21 [Compound 174, 4-((1R,3r,5S,6r)-6-(1-Isopropyl-3-(5-(trifluoromethyl)pyridin-2-yl)-1H-pyrazol-5-yl)bicyclo[3.1.0]hexan-3-yl)morpholine] | – | –
